According to ChEMBL document CHEMBL5120900, “Structure-Based Discovery of a Series of NSD2-PWWP1 Inhibitors” (J Med Chem, 2022):
pIC50, pKd: −log10 of the molar value.

These molecules were tested against T1, Histone-lysine N-methyltransferase NSD3 (Homo sapiens, UniProt Q9BZ95) (assay: Binding affinity to NSD3 (unknown origin) assessed as dissociation constant).
T1 sequence (Q9BZ95 whole entry): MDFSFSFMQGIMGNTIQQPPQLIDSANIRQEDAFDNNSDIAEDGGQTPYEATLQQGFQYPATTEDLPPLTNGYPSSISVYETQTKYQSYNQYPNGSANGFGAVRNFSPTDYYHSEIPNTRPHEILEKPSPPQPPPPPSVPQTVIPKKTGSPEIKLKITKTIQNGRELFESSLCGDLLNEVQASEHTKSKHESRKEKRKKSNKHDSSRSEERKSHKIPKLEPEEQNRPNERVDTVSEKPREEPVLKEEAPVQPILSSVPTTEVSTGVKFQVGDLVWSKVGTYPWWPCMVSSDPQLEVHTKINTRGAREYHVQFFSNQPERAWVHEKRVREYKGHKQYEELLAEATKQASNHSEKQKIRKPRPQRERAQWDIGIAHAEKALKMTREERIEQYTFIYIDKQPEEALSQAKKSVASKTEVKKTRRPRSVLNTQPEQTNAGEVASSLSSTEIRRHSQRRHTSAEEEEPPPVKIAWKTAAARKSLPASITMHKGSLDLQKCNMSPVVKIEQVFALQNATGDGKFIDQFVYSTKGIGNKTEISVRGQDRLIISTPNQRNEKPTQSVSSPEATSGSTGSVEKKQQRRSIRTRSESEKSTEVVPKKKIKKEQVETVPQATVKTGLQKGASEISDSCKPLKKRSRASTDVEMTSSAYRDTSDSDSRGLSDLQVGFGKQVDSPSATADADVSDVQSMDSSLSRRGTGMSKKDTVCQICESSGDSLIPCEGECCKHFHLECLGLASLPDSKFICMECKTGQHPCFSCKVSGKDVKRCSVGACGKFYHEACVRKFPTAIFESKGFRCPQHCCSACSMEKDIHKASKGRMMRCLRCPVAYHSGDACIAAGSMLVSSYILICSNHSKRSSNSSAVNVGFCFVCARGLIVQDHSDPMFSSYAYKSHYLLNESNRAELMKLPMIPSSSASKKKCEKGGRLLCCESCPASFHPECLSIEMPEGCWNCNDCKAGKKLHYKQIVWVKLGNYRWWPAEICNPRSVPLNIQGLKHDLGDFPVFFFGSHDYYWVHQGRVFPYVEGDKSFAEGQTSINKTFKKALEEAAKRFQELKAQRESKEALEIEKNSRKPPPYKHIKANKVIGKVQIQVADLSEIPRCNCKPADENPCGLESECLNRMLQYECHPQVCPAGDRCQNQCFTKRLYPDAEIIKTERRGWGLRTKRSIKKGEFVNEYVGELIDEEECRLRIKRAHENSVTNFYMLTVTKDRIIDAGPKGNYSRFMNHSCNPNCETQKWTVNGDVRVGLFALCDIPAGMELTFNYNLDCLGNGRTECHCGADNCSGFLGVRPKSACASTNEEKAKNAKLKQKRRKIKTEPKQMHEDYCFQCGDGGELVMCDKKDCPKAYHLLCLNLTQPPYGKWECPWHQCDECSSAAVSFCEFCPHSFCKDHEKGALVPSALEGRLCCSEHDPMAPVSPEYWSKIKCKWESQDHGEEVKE

pKd	SMILES
7.04	N#Cc1ccc(C(=O)N(Cc2cccs2)C2CC2)cc1

Each molecule was assayed against T2, Histone-lysine N-methyltransferase NSD2 (Homo sapiens, UniProt O96028) (assay: Binding affinity to N-terminal His6/Sumo-tagged NSD2 PWWP1 domain (211 to 350 residues) (unknown origin) expressed in Escherichia coli BL21 (DE3) using ATKAARKSAPATGGV-Lys (me)2-KPHRYRPG polypeptide as substrate incubated for 3 hrs by HTRF assay).
T2 sequence (O96028 whole entry): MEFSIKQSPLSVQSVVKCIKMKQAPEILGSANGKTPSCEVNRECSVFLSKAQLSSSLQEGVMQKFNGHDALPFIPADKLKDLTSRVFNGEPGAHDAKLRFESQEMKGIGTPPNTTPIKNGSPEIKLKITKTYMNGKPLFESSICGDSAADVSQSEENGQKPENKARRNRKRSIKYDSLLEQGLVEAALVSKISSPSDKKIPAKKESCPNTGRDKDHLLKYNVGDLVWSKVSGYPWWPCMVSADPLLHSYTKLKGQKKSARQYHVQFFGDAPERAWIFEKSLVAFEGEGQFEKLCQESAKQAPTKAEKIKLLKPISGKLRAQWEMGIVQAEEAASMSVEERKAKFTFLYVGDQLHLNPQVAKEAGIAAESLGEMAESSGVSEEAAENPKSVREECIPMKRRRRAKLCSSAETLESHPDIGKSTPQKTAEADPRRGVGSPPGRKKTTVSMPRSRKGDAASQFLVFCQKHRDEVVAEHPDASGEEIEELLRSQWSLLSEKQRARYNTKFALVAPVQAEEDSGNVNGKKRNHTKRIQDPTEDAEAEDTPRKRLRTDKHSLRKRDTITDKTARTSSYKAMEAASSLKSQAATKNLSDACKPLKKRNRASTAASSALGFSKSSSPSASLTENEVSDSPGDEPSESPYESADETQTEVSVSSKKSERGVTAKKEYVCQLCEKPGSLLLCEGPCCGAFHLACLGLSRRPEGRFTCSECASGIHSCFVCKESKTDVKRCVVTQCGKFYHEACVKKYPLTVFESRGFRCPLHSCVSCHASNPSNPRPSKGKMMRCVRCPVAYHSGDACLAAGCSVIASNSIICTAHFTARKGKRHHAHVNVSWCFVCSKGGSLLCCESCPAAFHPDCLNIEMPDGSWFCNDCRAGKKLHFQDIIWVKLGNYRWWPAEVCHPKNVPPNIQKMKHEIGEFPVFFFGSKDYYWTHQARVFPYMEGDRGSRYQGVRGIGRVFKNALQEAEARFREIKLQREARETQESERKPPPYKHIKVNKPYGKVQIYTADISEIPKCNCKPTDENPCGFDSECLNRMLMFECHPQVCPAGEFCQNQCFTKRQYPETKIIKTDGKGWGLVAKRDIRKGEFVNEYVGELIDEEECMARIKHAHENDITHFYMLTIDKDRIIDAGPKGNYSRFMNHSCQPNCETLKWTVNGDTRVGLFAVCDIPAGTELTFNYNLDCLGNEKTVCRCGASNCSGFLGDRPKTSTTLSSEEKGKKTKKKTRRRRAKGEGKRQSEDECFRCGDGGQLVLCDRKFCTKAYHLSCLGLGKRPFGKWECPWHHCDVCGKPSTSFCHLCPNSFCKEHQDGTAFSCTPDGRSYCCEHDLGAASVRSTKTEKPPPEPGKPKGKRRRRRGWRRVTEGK

pIC50	SMILES
6.21	Cc1cc(CNCCN)cc(C)c1-c1ncn(C)c1-c1ccc(C#N)c2ccccc12
4.92	COc1cc(CN)ccc1-c1ncn(C)c1-c1ccc(C#N)cc1
5.83	Cc1cc(CN2CCCCC2)cc(C)c1-c1ncn(C)c1-c1ccc(C#N)c2ccccc12
5.78	Cc1cc(CNC(=O)OC(C)(C)C)cc(C)c1-c1ncn(C)c1-c1ccc(C#N)c2ccccc12
6.28	Cc1cc(CN2CCC(O)C2)cc(C)c1-c1ncn(C)c1-c1ccc(C#N)c2ccccc12 (configuration not stated)
5.22	Cn1cnc(-c2ccc(CN)cc2C(F)(F)F)c1-c1ccc(C#N)cc1
6.24	Cc1cc(CN)cc(C)c1-c1ncn(C)c1-c1ccc(C#N)cc1
6.19	Cc1cc(CNC(C)(C)C)cc(C)c1-c1ncn(C)c1-c1ccc(C#N)c2ccccc12
5.72	Cc1cc(CN2CCNCC2)cc(C)c1-c1ncn(C)c1-c1ccc(C#N)c2ccccc12
5.80	Cc1cc(CN)cc(C)c1-c1ncn(C)c1-c1ccc(C#N)c2ncccc12
5.35	COc1cc(CN)cc(OC)c1-c1ncn(C)c1-c1ccc(C#N)cc1
< 4.62	CCC(O)c1cc(C)c(-c2ncn(C)c2-c2ccc(C#N)c3ccccc23)c(C)c1 (configuration not stated)
4.86	Cc1cc(CO)cc(C)c1-c1ncn(C)c1-c1ccc(C#N)c2ccccc12
5.09	Cc1cc(CN2CCN(C(=O)OC(C)(C)C)CC2)cc(C)c1-c1ncn(C)c1-c1ccc(C#N)c2ccccc12
4.95	Cn1cnc(-c2ccc(CN)cc2F)c1-c1ccc(C#N)cc1
4.98	Cc1cc(N)cc(C)c1-c1ncn(C)c1-c1ccc(C#N)c2ccccc12
5.21	Cn1cnc(-c2ccc(CN)cc2Cl)c1-c1ccc(C#N)cc1
5.70	Cc1cc(CN2CCC(N(C)C)C2)cc(C)c1-c1ncn(C)c1-c1ccc(C#N)c2ccccc12 (configuration not stated)

pIC50	SMILES
4.96	COc1cc(-c2c(-c3c(C)cc(CN)cc3C)ncn2C)ccc1C#N
< 4.66	CCC(=O)c1cc(C)c(-c2ncn(C)c2-c2ccc(C#N)c3ccccc23)c(C)c1
< 4.68	Cc1cc(C=O)cc(C)c1-c1ncn(C)c1-c1ccc(C#N)c2ccccc12
< 4.70	CNc1cc(-c2c(-c3c(C)cc(CN)cc3C)ncn2C)ccc1C#N
6.37	Cc1cc(CNC2CC2)cc(C)c1-c1ncn(C)c1-c1ccc(C#N)c2ccccc12
< 4.70	Cc1cc(C#N)cc(C)c1-c1ncn(C)c1-c1ccc(C#N)c2ccccc12
5.09	Cc1cc(CN2CCC(NC(=O)OC(C)(C)C)CC2)cc(C)c1-c1ncn(C)c1-c1ccc(C#N)c2ccccc12
5.33	Cc1cc(CN)ccc1-c1ncn(C)c1-c1ccc(C#N)cc1
5.42	Cc1cc(CN2CCOCC2)cc(C)c1-c1ncn(C)c1-c1ccc(C#N)c2ccccc12
6.28	Cc1cc(CN)cc(C)c1-c1ncn(C)c1-c1ccc(C#N)c2ccccc12
4.81	Cc1cc(CN)cc(C)c1-c1ncn(C)c1-c1ccc(C#N)c(C(F)(F)F)c1
5.06	Cc1cc(CN)cc(C)c1-c1ncn(C)c1-c1ccc(C#N)c(N)c1
6.15	CCNCc1cc(C)c(-c2ncn(C)c2-c2ccc(C#N)c3ccccc23)c(C)c1
< 4.60	Cc1cc(NC(=O)OC(C)(C)C)cc(C)c1-c1ncn(C)c1-c1ccc(C#N)c2ccccc12
4.86	Cn1cnc(-c2ccc(CN)cc2)c1-c1ccc(C#N)cc1
5.54	Cc1cc(CN)cc(C)c1-c1ncn(C)c1-c1ccc(C#N)c(F)c1
5.68	Cc1cc(CN2CCCC2)cc(C)c1-c1ncn(C)c1-c1ccc(C#N)c2ccccc12

SMILES	pIC50
Cc1cc(CN)cc(C)c1-c1ncn(C)c1-c1ccc(C#N)c(Cl)c1	5.30
